The subject of experiment [1] is Total ATXN3 (tATXN3) protein. Kind of experiment: Endogenous Total ATXN3 (tATXN3) Protein Assay (MSD immunoassay of cell lysates). In kind it is cell-based. Particulars: average IC50, total ATXN3 protein in cell lysate after 48 h with compound (Table 1). An outline of the steps: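 Cells in DMEM/10% FBS were plated at 10,000 per well onto 7-point, 3.16-fold compound dilutions in duplicate for 48 h at 37° C, then lysed. Total ATXN3 in lysates was measured by MSD sandwich immunoassay: mouse anti-ATXN3 capture, rabbit anti-ATXN3 detection, SULFO-TAG anti-rabbit. Average IC50 was reported in star bins.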

Experiment [2] has as its system ATXN3 pre-mRNA. Kind of experiment: RT-qPCR Assay to Quantify Exon 4 Skipping in ATXN3 pre-mRNA in Cells. In kind it is cell-based. Particulars: percent exon 4 skipping in ATXN3 pre-mRNA, RT-qPCR of cell lysates; average IC50. In short, it runs like this: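 Cells plated at 10,000/well onto a 7-point, 3.16-fold DMSO dilution series (duplicates), incubated 24 h at 37 °C, then lysed. Exon 4 skipping measured by one-step RT-qPCR (48 °C RT, 40 cycles); IC50 interpolated from dose-response fit of percent skipping.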

For orientation: IC50 means the concentration needed to halve the response being measured. On to `N[C@@H]1CCCC[C@H]1c1sc2c(NCc3cccs3)cc(Cl)nc2c1COC(F)F.N[C@H]1CCCC[C@@H]1c1sc2c(NCc3cccs3)cc(Cl)nc2c1COC(F)F` (mixture of isomers) [Compound 257, 2-((1S,2S)-2-aminocyclohexyl)-5-chloro-3-((difluoromethoxy)methyl)-N-(thiophen-2-ylmethyl)thieno[3,2-b]pyridin-7-amine and 2-((1R,2R)-2-aminocyclohexyl)-5-chloro-3-((difluoromethoxy)methyl)-N-(thiophen-2-ylmethyl)thieno[3,2-b]pyridin-7-amine], for which the figures for the half-maximal inhibitory concentration (IC50) in experiment [1] and in experiment [2] were 30 to 300 nM and ≤ 30 nM, respectively.
As to `N[C@@H]1CCCC[C@H]1c1sc2c(NCc3cccs3)cc(Cl)nc2c1C1CC1` [Compound 137, 2-((1R,2R)-2-aminocyclohexyl)-5-chloro-3-cyclopropyl-N-(thiophen-2-ylmethyl)thieno[3,2-b]pyridin-7-amine], the IC50 in experiment [1] and in experiment [2] was > 1000 nM in each case.
Consider `CCOC(=O)C1=CC[C@H](c2sc3c(NCc4cccs4)cc(Cl)nc3c2C)[C@@H](N)C1` [Compound 277, ethyl (4S,5S)-5-amino-4-(5-chloro-3-methyl-7-((thiophen-2-ylmethyl)amino)thieno[3,2-b]pyridin-2-yl)cyclohex-1-ene-1-carboxylate], for which the IC50 was 30 to 300 nM in experiment [1] and ≤ 30 nM in experiment [2].
For the compound `N[C@H]1CCCO[C@@H]1c1sc2c(NCc3ccco3)nc(Cl)nc2c1Br` [Compound 143, 6-((2S,3S)-3-aminotetrahydro-2H-pyran-2-yl)-7-bromo-2-chloro-N-(furan-2-ylmethyl)thieno[3,2-d]pyrimidin-4-amine], the IC50 in experiment [1] and in experiment [2] was ≤ 30 nM in each case.
Regarding `CC#CCNc1cc(Cl)nc2c(Br)c([C@H]3CC=CC[C@@H]3N)sc12` [Compound 230, 2-((1S,6S)-6-aminocyclohex-3-en-1-yl)-3-bromo-N-(but-2-yn-1-yl)-5-chlorothieno[3,2-b]pyridin-7-amine], the IC50 in experiment [1] and in experiment [2] was ≤ 30 nM in each case.
Regarding “2-((3R,4S)-3-aminotetrahydro-2H-pyran-4-yl)-3,5-dichloro-N-(furan-2-ylmethyl)thieno[3,2-b]pyridin-7-amine and 2-((3S,4R)-3-aminotetrahydro-2H-pyran-4-yl)-3,5-dichloro-N-(furan-2-ylmethyl)thieno[3,2-b]pyridin-7-amine [Compound 314]”, the concentration for half-maximal inhibition (IC50) in experiment [1] and in experiment [2] was 30 to 300 nM in each case.
On to `N[C@H]1CCCO[C@@H]1c1c(Br)c2nc(Cl)cc(NCc3cccs3)c2n1C(F)F` [Compound 281, 2-((2S,3S)-3-aminotetrahydro-2H-pyran-2-yl)-3-bromo-5-chloro-1-(difluoromethyl)-N-(thiophen-2-ylmethyl)-1H-pyrrolo[3,2-b]pyridin-7-amine], for which the IC50 in experiment [1] and in experiment [2] was 30 to 300 nM throughout.
Turning to `N[C@@H]1CC=CC[C@H]1c1sc2c(NCc3ccco3)cc(Cl)nc2c1Br` [Compound 310, 2-((1R,6R)-6-aminocyclohex-3-en-1-yl)-3-bromo-5-chloro-N-(furan-2-ylmethyl)thieno[3,2-b]pyridin-7-amine], the IC50 in experiment [1] and in experiment [2] was 30 to 300 nM each time.
Regarding `[2H]C1=C([2H])C([2H])([2H])[C@@H](c2sc3c(NCc4ccco4)nc(Cl)nc3c2C)[C@H](N)C1([2H])[2H]` [Compound 449, 6-((1R,6R)-6-aminocyclohex-3-en-1-yl-2,2,3,4,5,5-d6)-2-chloro-N-(furan-2-ylmethyl)-7-methylthieno[3,2-d]pyrimidin-4-amine], the IC50 in experiment [1] was 30 to 300 nM; in experiment [2], 300 to 1000 nM.
The like results for `Cc1c([C@@H]2CC=CC[C@H]2N)sc2c(NCc3ccncc3F)nc(Cl)nc12` [Compound 435, 6-((1R,6R)-6-aminocyclohex-3-en-1-yl)-2-chloro-N-((3-fluoropyridin-4-yl)methyl)-7-methylthieno[3,2-d]pyrimidin-4-amine] were, in that order, 30 to 300 nM and ≤ 30 nM.
On the same counts, the results for `N[C@H]1CC=CC[C@@H]1c1sc2c(NCc3cccs3)cc(Cl)nc2c1C#Cc1ccncc1` [Compound 395, 2-((1S,6S)-6-aminocyclohex-3-en-1-yl)-5-chloro-3-(pyridin-4-ylethynyl)-N-(thiophen-2-ylmethyl)thieno[3,2-b]pyridin-7-amine] are 300 to 1000 nM and 30 to 300 nM.
On the same counts, the results for `CN(Cc1ccco1)c1cc(Cl)nc2c(C#CCCCO)c([C@@H]3CC=CC[C@H]3N)sc12` [Compound 452, 5-(2-((1R,6R)-6-aminocyclohex-3-en-1-yl)-5-chloro-7-((furan-2-ylmethyl)(methyl)amino)thieno[3,2-b]pyridin-3-yl)pent-4-yn-1-ol] are 30 to 300 nM and 30 to 300 nM.
As to `N[C@H]1CCC[C@@H]1c1sc2c(NCc3cccs3)cc(Cl)nc2c1I` [Compound 162, 2-((1S,2S)-2-aminocyclopentyl)-5-chloro-3-iodo-N-(thiophen-2-ylmethyl)thieno[3,2-b]pyridin-7-amine], the IC50 in experiment [1] and in experiment [2] was ≤ 30 nM each time.
Consider `N[C@@H]1CCCC[C@H]1c1sc2c(NCc3cccs3)cc(Cl)nc2c1-c1ccccc1` [Compound 138], for which the IC50 in experiment [1] lay in the range of 30 to 300 nM; in experiment [2], 300 to 1000 nM.
On the same counts, the results for `Cc1c([C@H]2CC=C(C(=O)Nc3ccccc3)C[C@@H]2N)sc2c(NCc3cccs3)cc(Cl)nc12` [Compound 353, (4S,5S)-5-amino-4-(5-chloro-3-methyl-7-((thiophen-2-ylmethyl)amino)thieno[3,2-b]pyridin-2-yl)-N-phenylcyclohex-1-ene-1-carboxamide] are 30 to 300 nM and 30 to 300 nM.
On the same counts, the results for `N[C@H]1CCCC[C@@H]1c1sc2c(NCC3=CCCC3)cc(Cl)nc2c1Br` [Compound 361, 2-((1S,2S)-2-aminocyclohexyl)-3-bromo-5-chloro-N-(cyclopent-1-en-1-ylmethyl)thieno[3,2-b]pyridin-7-amine] are 30 to 300 nM and 30 to 300 nM.
On the same counts, the results for “6-((1S,2S)-2-aminocyclohexyl)-2,7-dichloro-5-(difluoromethyl)-N-(furan-2-ylmethyl)-5H-pyrrolo[3,2-d]pyrimidin-4-amine and 6-((1R,2R)-2-aminocyclohexyl)-2,7-dichloro-5-(difluoromethyl)-N-(furan-2-ylmethyl)-5H-pyrrolo[3,2-d]pyrimidin-4-amine [Compound 334]” are 30 to 300 nM and 30 to 300 nM.
For `N[C@H]1CC=CC[C@@H]1c1sc2c(NCc3ccccc3F)cc(Cl)nc2c1Br` [Compound 287, 2-((1S,6S)-6-aminocyclohex-3-en-1-yl)-3-bromo-5-chloro-N-(2-fluorobenzyl)thieno[3,2-b]pyridin-7-amine], the IC50 in experiment [1] and in experiment [2] was 30 to 300 nM throughout.
As for `N[C@@H]1CCCO[C@H]1c1sc2c(NCc3ccco3)cc(Cl)nc2c1Cl` [Compound 119, 2-((2R,3R)-3-aminotetrahydro-2H-pyran-2-yl)-3,5-dichloro-N-(furan-2-ylmethyl)thieno[3,2-b]pyridin-7-amine], the IC50 in experiment [1] and in experiment [2] was > 1000 nM each time.
As for `N[C@H]1CCCCCC[C@@H]1c1sc2c(NCc3cccs3)cc(Cl)nc2c1I` [Compound 122, 2-((1S,2S)-2-aminocyclooctyl)-5-chloro-3-iodo-N-(thiophen-2-ylmethyl)thieno[3,2-b]pyridin-7-amine], the IC50 in experiment [1] and in experiment [2] was > 1000 nM each time.
Consider “5-(5-chloro-2-((1R,6R)-6-(methylamino)cyclohex-3-en-1-yl)-7-((thiophen-2-ylmethyl)amino)thieno[3,2-b]pyridin-3-yl)pent-4-yn-1-ol and 5-(5-chloro-2-((1S,6S)-6-(methylamino)cyclohex-3-en-1-yl)-7-((thiophen-2-ylmethyl)amino)thieno[3,2-b]pyridin-3-yl)pent-4-yn-1-ol [Compound 288]”, for which the IC50 in experiment [1] and in experiment [2] was 30 to 300 nM each time.
As for `CN(Cc1cccs1)c1cc(Cl)nc2c(C#CCCCO)c([C@H]3CC=CC[C@@H]3N)sc12` [Compound 349, 5-(2-((1S,6S)-6-aminocyclohex-3-en-1-yl)-5-chloro-7-(methyl(thiophen-2-ylmethyl)amino)thieno[3,2-b]pyridin-3-yl)pent-4-yn-1-ol], the IC50 in experiment [1] and in experiment [2] was 30 to 300 nM in each case.
`Cc1c([C@H]2CCC[C@@H]2N)sc2c(NCc3cccs3)cc(Cl)nc12` [Compound 6, 2-((1S,2S)-2-aminocyclopentyl)-5-chloro-3-methyl-N-(thiophen-2-ylmethyl)thieno[3,2-b]pyridin-7-amine]: the IC50 in experiment [1] and in experiment [2] was 30 to 300 nM each time.
For the compound `N[C@@H]1CC=CC[C@H]1c1sc2c(NCc3ccccc3)nc(Cl)nc2c1Br` [Compound 434, 6-((1R,6R)-6-aminocyclohex-3-en-1-yl)-N-benzyl-7-bromo-2-chlorothieno[3,2-d]pyrimidin-4-amine], the IC50 in experiment [1] and in experiment [2] was 30 to 300 nM each time.
For `CN(Cc1ccco1)c1cc(Cl)nc2c(C#CCCCO)c([C@H]3CC=CC[C@@H]3N)sc12` [Compound 336, 5-(2-((1S,6S)-6-aminocyclohex-3-en-1-yl)-5-chloro-7-((furan-2-ylmethyl)(methyl)amino)thieno[3,2-b]pyridin-3-yl)pent-4-yn-1-ol], the IC50 in experiment [1] and in experiment [2] was 30 to 300 nM in each case.

Values taken from patent publication US20250382305A1 (PTC THERAPEUTICS, INC., priority 2022, published 2025).
